In one data set the test system is S. aureus. Put plainly: In vitro MIC, serial two-fold agar dilution, primary evaluation Gp (S. aureus, 6 strains). It is filed as cell-based. The note with it: CBPC = 100%; geometric mean of MICs; Mueller-Hinton agar. As to the method: (§1) Minimun inhibitory concentrations (MIC) were determined by the serial two-fold agar dilution method using Steers' apparatus on Mueller-Hinton agar plate against 31 test organisms for the primary screening and also against 64 strains of Pseudomonas aeruginosa for the secondary evaluation. The results are shown in Table 1 in terms of relative activity with respect to the standard compound CBPC (carbenicillin) which was set at 100%. In each group the calculation was based on the geometric mean of the observed MICs.
*GP = S. aureus (6 strains);

Data set [1] relates to E. coli (9), Klebsiella sp. (2), Pr. mirabilis (1), Sal. enteritidis (1). The data set is described as follows: In vitro MIC, serial two-fold agar dilution, primary evaluation Gn-I (E. coli, Klebsiella sp., Pr. mirabilis, Sal. enteritidis). It is filed as cell-based. Particulars: CBPC = 100%; geometric mean of MICs; Mueller-Hinton agar. As to the method:
as §1
GnI = E. coli (9), Klebsiella sp. (2), Pr. mirabilis (1), Sal.
Background: Agar dilution tests growth on a series of plates holding different concentrations.

For data set [2], the system named is Ent. cloacae (3), Pr. vulgaris (1), Pr. morganii (1), S. marcescen (1). Put plainly: In vitro MIC, serial two-fold agar dilution, primary evaluation Gn-II (Ent. cloacae, Pr. vulgaris, Pr. morganii, S. marcescens). In kind it is cell-based. Particulars: CBPC = 100%; geometric mean of MICs; Mueller-Hinton agar. As to the method: as §1
GnII = Ent. cloacae (3), Pr. vulgaris (1), Pr. morganii (1), S. marcescen

For a further data set, the system named is Ps. aeruginosa. Put plainly: In vitro MIC, serial two-fold agar dilution, primary evaluation Ps (6 strains). It is filed as cell-based. Particulars: CBPC = 100%; geometric mean of MICs; Mueller-Hinton agar. As to the method: as §1
Ps. = Ps. aeruginosa (6).

The next data set concerns Pseudomonas aeruginosa. The data set is described as follows: In vitro MIC, serial two-fold agar dilution, secondary evaluation against Pseudomonas aeruginosa strains. In kind it is cell-based. The note with it: CBPC = 100%; geometric mean of MICs; 61-64 strains. As to the method:
as §1

The subject of data set [3] is Pseudomonas aeruginosa A9843. Put plainly: In vivo efficacy, experimental infection in mice, intramuscular treatment, Pseudomonas aeruginosa A9843. Particulars: A9843, im, 120 h, I.M., 100×LD50 challenge i.p., 5 days, read-out: PD50 Pseudomonas aeruginosa A9843. Details: species or system Pseudomonas aeruginosa (infected mice). As to the method: (§2) The in vivo efficacy was evaluated by intramuscular treatment against three kinds of experimental infection in mice.
(§3) The in vivo tests were carried out using the following three pathogenic organisms:
Pseudomonas aeruginosa A9843
(§4) Mice were challenged intraperitoneally with approximately a 100×LD50 dose of the pathogens in a 5% mucin suspension. The mice were treated with test compound by I.M. route immediately after the bacterial challenge.

Data set [4] can be described thus: Antibiotic blood levels in mice following intramuscular administration (paper disc-agar diffusion, Escherichia coli NIHJ as assay organism). It is filed as in vivo. Particulars: mouse, im, I.M., 20 mg./kg.; for half-life: read-out: Blood level, Half-life; for Cmax: read-out: Blood level, Peak Concentration. As to the method:
Antibiotic blood levels were determined in mice following intramuscular administration of the test compounds at 20 mg./kg. The blood samples were collected from the orbital sinuses into heparinized capillary tubes at 15, 30, 60 and 120 minutes after administration. The antibiotic concentration was determined by the paper disc-agar diffusion method using Escherichia coli NIHJ as the assay organism.

The subject of the next data set is Escherichia coli Juhl. The data set is described as follows: In vivo efficacy, experimental infection in mice, intramuscular treatment, Escherichia coli Juhl. On the set-up: species or system Escherichia coli (infected mice). The note with it: im, 120 h, I.M., 100×LD50 challenge i.p., 5 days, read-out: PD50 Escherichia coli Juhl. As to the method:
as §2, §3, §4

Broadly, the half-life is the time needed for the level to fall by half in the phase considered. Consider `O=C([O-])C1=C(C[n+]2cccc(C(=O)O)c2)CSC2C(NC(=O)[C@H](NC(=O)c3cnc4cccnc4c3O)c3ccsc3)C(=O)N12` (stereo partly drawn) [BB-S624, 7-[D-α-(4-Hydroxy-1,5-naphthyridine-3-carboxamido)-α-(3-thienyl)acetamido]-3-(3-carboxypyridinium)methyl-3-cephem-4-carboxylate], for which the “In vitro relative activity, primary evaluation Gp (6)” value with S. aureus was 79%. The “In vitro relative activity, primary evaluation Gn-I (13)” value (shortened to “In vitro relative activity … (13)”) in data set [1] was found to be 47%. Besides, the “In vitro relative activity, primary evaluation Gn-II (6)” value in data set [2] is reported as 10%. Moreover, the “In vitro relative activity, primary evaluation Ps (6)” value in the data set with Ps. aeruginosa was 328%. For the same molecule, the “In vitro relative activity, secondary, Pseudomonas aeruginosa (61-64)” value (“In vitro relative activity, secondary” for short) in the data set on Pseudomonas aeruginosa is 413%. Moreover, the ED50 in data set [3] turned out to be 20 mg/kg. In addition, in data set [4], the half-life was 50 min and the Cmax was found to be 9500 ng/mL.

As to `O=C([O-])C1=C(C[n+]2cccc(S(=O)(=O)O)c2)CSC2C(NC(=O)[C@H](NC(=O)c3cnc4cccnc4c3O)c3ccsc3)C(=O)N12` (stereo partly drawn) [BB-S625, 7-[D-α-(4-Hydroxy-1.5-naphthyridine-3-carboxamido)-α-(3-thienyl)acetamido]-3-(3-sulfopyridinium)methyl-3-cephem-4-carboxylate], the “In vitro relative activity, primary evaluation Gp (6)” value with S. aureus stood at 50%. For the same molecule, the “In vitro relative activity … (13)” value in data set [1] was found to be 32%. Besides, in data set [2], the “In vitro relative activity, primary evaluation Gn-II (6)” value amounted to 7%. Moreover, the “In vitro relative activity, primary evaluation Ps (6)” value in the data set on Ps. aeruginosa is 200%. Besides, the “In vitro relative activity, secondary” value in the data set with Pseudomonas aeruginosa stood at 400%. The ED50 in data set [3] came out at 36 mg/kg. Moreover, in data set [4], the half-life turned out to be 54 min and the Cmax came out at 10000 ng/mL.

Take `O=C([O-])C1=C(C[n+]2ccc(C(=O)O)c(C(=O)O)c2)CSC2C(NC(=O)[C@H](NC(=O)c3cnc4cccnc4c3O)c3ccc(O)cc3)C(=O)N12` (stereo partly drawn) [BB-S586, 7-[D-α-(4-Hydroxy-1,5-naphthyridine-3-carboxamido)-α-(4-hydroxyphenyl)acetamido]-3-(3,4-dicarboxypyridinium)methyl-3-cephem-4-carboxylate]: the “In vitro relative activity, primary evaluation Gp (6)” value in the data set on S. aureus is 6%. The “In vitro relative activity … (13)” value in data set [1] turned out to be 88%. For the same molecule, the “In vitro relative activity, primary evaluation Gn-II (6)” value in data set [2] came to 11%. In addition, the “In vitro relative activity, primary evaluation Ps (6)” value in the data set with Ps. aeruginosa is 362%. Also, the “In vitro relative activity, secondary” value in the data set on Pseudomonas aeruginosa is 351%.

`O=C(O)C=Cc1ccc[n+](CC2=C(C(=O)[O-])N3C(=O)C(NC(=O)[C@H](NC(=O)c4cnc5cccnc5c4O)c4ccsc4)C3SC2)c1` (stereo partly drawn) [BB-S626, 7-[D-α-(4-Hydroxy-1,5-naphthyridine-3-carboxamido)-α-(3-thienyl)acetamido]-3-[3-(2-carboxyvinyl)pyridinium]methyl-3-cephem-4-carboxylate]: the “In vitro relative activity, primary evaluation Gp (6)” value with S. aureus worked out at 45%. Also, in data set [1], the “In vitro relative activity … (13)” value turned out to be 41%. Besides, the “In vitro relative activity, primary evaluation Gn-II (6)” value in data set [2] was 11%. Also, the “In vitro relative activity, primary evaluation Ps (6)” value with Ps. aeruginosa was found to be 231%. Also, the “In vitro relative activity, secondary” value with Pseudomonas aeruginosa was 460%. The ED50 in data set [3] amounted to 30 mg/kg. Further, in data set [4], the half-life came out at 42 min and the Cmax is 8800 ng/mL.

On to `O=C(O)CSc1cc[n+](CC2=C(C(=O)[O-])N3C(=O)C(NC(=O)[C@H](NC(=O)c4cnc5cccnc5c4O)c4ccc(O)c(O)c4)C3SC2)cc1` (stereo partly drawn) [BB-S639, 7-[D-α-(4-Hydroxy-1,5-naphthyridine-3-carboxamido)-α-(3,4-dihydroxyphenyl)acetamido]-3-(4-carboxymethylthiopyridinium)-methyl-3-cephem-4-carboxylate], for which the “In vitro relative activity, primary evaluation Gp (6)” value in the data set with S. aureus came out at 20%. In addition, in data set [1], the “In vitro relative activity … (13)” value turned out to be 242%. Moreover, the “In vitro relative activity, primary evaluation Gn-II (6)” value in data set [2] came out at 35%. In the data set with Ps. aeruginosa, the “In vitro relative activity, primary evaluation Ps (6)” value is recorded as 4310%.

With `O=C([O-])C1=C(C[n+]2cccc(CCS(=O)(=O)O)c2)CSC2C(NC(=O)[C@H](NC(=O)c3cnc4cccnc4c3O)c3ccc(O)cc3)C(=O)N12` (stereo partly drawn) [BB-S620, 7-[D-α-(4-Hydroxy-1,5-naphthyridine-3-carboxamido)-α-(4-hydroxyphenyl)acetamido]-3-[3-(2-sulfoethyl)pyridinium]methyl 3-cephem-4-carboxylate], the “In vitro relative activity, primary evaluation Gp (6)” value with S. aureus turned out to be 28%. Further, the “In vitro relative activity … (13)” value in data set [1] is recorded as 60%. In addition, the “In vitro relative activity, primary evaluation Gn-II (6)” value in data set [2] is given as 14%. In the data set on Ps. aeruginosa, the “In vitro relative activity, primary evaluation Ps (6)” value is recorded as 800%. Also, in the data set on Pseudomonas aeruginosa, the “In vitro relative activity, secondary” value amounted to 1800%. Further, in the data set on Escherichia coli Juhl, the ED50 amounted to 3.2 mg/kg. In addition, in data set [3], the ED50 was found to be 6.25 mg/kg. Further, in data set [4], the half-life came out at 40 min and the Cmax worked out at 12500 ng/mL.

`O=C(O)CCc1ccc[n+](CC2=C(C(=O)[O-])N3C(=O)C(NC(=O)[C@H](NC(=O)c4cnc5cccnc5c4O)c4ccc(O)cc4)C3SC2)c1` (some centres unmarked) [BB-S619]: in the data set on S. aureus, the “In vitro relative activity, primary evaluation Gp (6)” value amounted to 31%. Moreover, the “In vitro relative activity … (13)” value in data set [1] came to 88%. In addition, the “In vitro relative activity, primary evaluation Gn-II (6)” value in data set [2] turned out to be 18%. The “In vitro relative activity, primary evaluation Ps (6)” value with Ps. aeruginosa amounted to 725%. In addition, the “In vitro relative activity, secondary” value in the data set on Pseudomonas aeruginosa worked out at 1600%. For the same molecule, the ED50 in the data set on Escherichia coli Juhl turned out to be 3.2 mg/kg. The ED50 in data set [3] is 4.6 mg/kg. Also, in data set [4], the half-life worked out at 55 min and the Cmax is 10000 ng/mL.

`O=C(O)CSc1ccc[n+](CC2=C(C(=O)[O-])N3C(=O)C(NC(=O)[C@H](NC(=O)c4cnc5cccnc5c4O)c4ccc(O)c(Cl)c4)C3SC2)c1` (stereo partly drawn) [BB-S637, 7-[D-α-(4-Hydroxy-1,5-naphthyridine-3-carboxamido)-α-(3-chloro-4-hydroxyphenyl)acetamido]-3-(3-carboxymethylthiopyridinium)methyl-3-cephem-4-carboxylate]: in the data set on S. aureus, the “In vitro relative activity, primary evaluation Gp (6)” value is recorded as 71%. In addition, the “In vitro relative activity … (13)” value in data set [1] is on record as 113%. In addition, the “In vitro relative activity, primary evaluation Gn-II (6)” value in data set [2] is on record as 25%. Further, in the data set with Ps. aeruginosa, the “In vitro relative activity, primary evaluation Ps (6)” value is reported as 3530%.

Regarding `O=C([O-])C1=C(C[n+]2cccc(S(=O)(=O)O)c2)CSC2C(NC(=O)[C@H](NC(=O)c3cnc4cccnc4c3O)c3ccc(O)c(Cl)c3)C(=O)N12` (stereo partly drawn) [BB-S601, 7-[D-α-(4-Hydroxy-1,5-naphthyridine-3-carboxamido)-α-(3-chloro-4-hydroxyphenyl)acetamido]-3-(3-sulfopyridinium)methyl-3-cephem-4-carboxylate], the “In vitro relative activity, primary evaluation Gp (6)” value with S. aureus is 79%. The “In vitro relative activity … (13)” value in data set [1] is recorded as 107%. The “In vitro relative activity, primary evaluation Gn-II (6)” value in data set [2] is reported as 25%. Also, the “In vitro relative activity, primary evaluation Ps (6)” value in the data set on Ps. aeruginosa was 3200%. In the data set on Pseudomonas aeruginosa, the “In vitro relative activity, secondary” value is 2490%. In addition, in data set [3], the ED50 stood at 4.4 mg/kg. Besides, in data set [4], the half-life stood at 70 min and the Cmax worked out at 10000 ng/mL.

For the molecule `O=C(O)CSc1ccc[n+](CC2=C(C(=O)[O-])N3C(=O)C(NC(=O)[C@H](NC(=O)c4cnc5cccnc5c4O)c4ccc(O)c(O)c4)C3SC2)c1` (stereo partly drawn) [BB-S638, 7-[D-α-(4-Hydroxy-1,5-naphthyridine-3-carboxamido)-α-(3,4-dihydroxyphenyl)acetamido]-3-(3-carboxymethylthiopyridinium)-methyl-3-cephem-4-carboxylate], in the data set with S. aureus, the “In vitro relative activity, primary evaluation Gp (6)” value was found to be 8%. Also, the “In vitro relative activity … (13)” value in data set [1] is listed as 69%. For the same molecule, the “In vitro relative activity, primary evaluation Gn-II (6)” value in data set [2] is given as 8%. Also, the “In vitro relative activity, primary evaluation Ps (6)” value in the data set on Ps. aeruginosa is recorded as 2380%.

`O=C(O)CSc1ccc[n+](CC2=C(C(=O)[O-])N3C(=O)C(NC(=O)[C@H](NC(=O)c4cnc5cccnc5c4O)c4ccc(O)cc4)C3SC2)c1` (stereo partly drawn) [BB-S636, 7-[D-α-(4-Hydroxy-1,5-naphthyridine-3-carboxamido)-α-(4-hydroxyphenyl)acetamido]-3-(3-carboxymethylthiopyridinium)-methyl-3-cephem-4-carboxylate]: the “In vitro relative activity, primary evaluation Gp (6)” value in the data set with S. aureus is 71%. In addition, the “In vitro relative activity … (13)” value in data set [1] is 242%. In data set [2], the “In vitro relative activity, primary evaluation Gn-II (6)” value was 50%. Moreover, the “In vitro relative activity, primary evaluation Ps (6)” value with Ps. aeruginosa turned out to be 7070%.
